Experimental data reported in ChEMBL document CHEMBL3507680, “University of Dundee, Gates Library screen for HepG2 cell viability”.

Assay: Human HepG2 cell viability assay in 384 well format
Assay type: toxicity, cell-based
Design: dose 125 nL, time 70.5 hour; concentration not given beside the values
Details: HepG2 cells, read-out: Inhibition

| Structure (SMILES) | cytotoxicity at 70.5 h |
| --- | --- |
| Cc1cccc(CN2CCOCC3(CCN(C4CCOCC4)C3)C2)n1 (stereo not drawn) | 7.65% |
| CCOCC1CN(CC2CC2)Cc2nn(C)cc21 (stereo not drawn) | -4.39% |
| CC(C)C(=O)N1CCC(NCc2c(C(C)C)nn(C)c2N(C)C)CC1 | -5.89% |
| CO[C@H]1CC[C@H]2[C@H]1OCCN2Cc1ccc(F)cc1 | 9.89% |
| CN(C)Cc1nn(C)c2c1CN(C(=O)Nc1cccc(F)c1)C2 | -2.91% |
| CN(C)c1ncccc1CNS(=O)(=O)c1ccc(F)c(F)c1 | 1.87% |
| O=C1COC2(CCN(CC3CC3)CC2)CN1c1cncnc1 | -13.3% |
| Cc1ncc(C(=O)N2CCC(C(=O)NC3CCCC3)C2)c(C)n1 (stereo not drawn) | -6.35% |
| Cc1cnn(CCC(=O)N2CCCC(c3ccn[nH]3)C2)c1 (stereo not drawn) | -1.8% |
| O=C(Cn1cc(I)cn1)N1CCc2ccccc2C1 | -3.15% |
| Cc1nsc(NC(=O)N2CCN(Cc3ccccc3F)C(=O)C2)n1 | -8.72% |
| CCc1cc(=O)[nH]c(-c2ccc(NC(CO)CC(C)C)nc2)n1 (stereo not drawn) | -2.63% |
| CCCn1ncc(C(=O)N(Cc2cccnc2)C[C@@H]2CCC(=O)N2)c1C | -5.8% |
| CCCC(C)CS(=O)(=O)NCc1cccnc1OC (stereo not drawn) | 1.49% |
| COc1ccc(S(=O)(=O)C(F)(F)F)cc1NC(=O)CSCC#N | 1.04% |
| CS(=O)(=O)c1cnc(N2CCCC2)nc1C1CCN(C(=O)C2CC2)CC1 | 0.997% |
| CCOC(C)c1nc(COc2nc(C)no2)cs1 (stereo not drawn) | -3.02% |
| CCC(C)(C)CC(=O)NC(C)C(=O)Nc1ccc(-n2cncn2)cc1 (stereo not drawn) | -81.3% |
| O=C(c1ccc[nH]1)N1CCO[C@]2(CCC[C@@H]2COc2cccnc2)C1 | -2.32% |
| COC(=O)c1cc(C(=O)N2CCCCC2C)n(-c2ccccc2)n1 (stereo not drawn) | 19.1% |
| Cc1cc(C)n(-c2ccc(N3CCC4(CC3)OCCO4)nc2)n1 | 3.59% |
| COCCN1CCC(CNC(=O)C2(c3cccc(Cl)c3)CC2)C1 (stereo not drawn) | -0.451% |
| N#CC1(NC(=O)Cn2nnc(-c3cc4ccccc4o3)n2)CCCC1 | -11.5% |

| Structure (SMILES) | cytotoxicity at 70.5 h |
| --- | --- |
| O=C(Cn1cccc1)NCC1CCN(Cc2cc3ccccc3[nH]2)C1 (stereo not drawn) | -16.5% |
| Cc1cc(C(=O)N2CCCC2Cn2nc(C)cc2C)on1 (stereo not drawn) | 1.85% |
| Cc1cc(C(=O)N2CC(O)CO2)c2cccc(C)c2n1 (stereo not drawn) | -13% |
| O=C1CC2(CCN(c3nncs3)C2)CN1c1cncnc1 (stereo not drawn) | -0.39% |
| Cc1nnc2n1CCN(C(=O)CN1C(=O)CCOc3ccccc31)C2 | -7.17% |
| CN1CCN(C(=O)CCc2cc(Br)cs2)CC1 | -6.76% |
| CC(C)c1noc(CCCC(=O)NC(C)c2nnc3n2CCC3)n1 (stereo not drawn) | -4.68% |
| CN(C)c1ccc(C(=O)N2CCN(Cc3cscn3)CC2)cc1F | -8.39% |
| CC(C)C(NC(N)=O)C(=O)NCc1ccc(N2CCCC2)nc1 (stereo not drawn) | -9.75% |
| CS(=O)(=O)NCCC(=O)Nc1cnn(-c2ccccc2Cl)c1 | -11.9% |
| Cc1ccccc1C(=O)NC1CCN(c2cnn(C)c2)C1=O (stereo not drawn) | -4.47% |
| CC(=O)NCCCNCc1c(C)nn(CC(C)C)c1N(C)C | -5.4% |
| c1csc(CN2CCCn3cnc(COCC4CC4)c3C2)n1 | -0.793% |
| CCN(CC)C(=O)c1ccn(COc2cc(C)cc(C)c2)n1 | 4.47% |
| C1CCCN(C2CCCN(Cc3noc(C4CC4)n3)C2)CC1 (stereo not drawn) | -1.66% |
| O=C(CCn1ccnc1)N1CC[C@H](Oc2cccc(F)c2)[C@@H](O)CC1 | 28.5% |
| O=C(CSc1ccccn1)NCc1ccc2c(c1)CCC(=O)N2 | 40.7% |
| CO[C@H]1CCN(Cc2c(C)noc2C)[C@@H]2CN(Cc3ccncc3)C[C@H]12 | -5.37% |
| CNC(=O)c1cccc(CNC2CCSc3c(Cl)cccc32)c1 (stereo not drawn) | 35.4% |
| O=C(Nc1ccccn1)c1ccc(F)c(S(=O)(=O)NC2CC2)c1 | -16.8% |
| Cc1ccc(NC(=O)NCCc2ccncc2C)c(N(C)C)n1 | -16.2% |
| Cc1cc2n(n1)CC(CNCc1ccc(-n3ccnc3C)nc1)CN2 (stereo not drawn) | -20.7% |
| CCn1ncc(NC(=O)c2cc(C3CC3)nc3c2c(C)nn3C)c1C | 35.5% |

| Structure (SMILES) | cytotoxicity at 70.5 h |
| --- | --- |
| Clc1ccc(OCCNCCn2cccn2)cc1 | 22.1% |
| O=C(NC1CC1)N1CCOC2(CCCN(c3cccc(F)c3)C2)C1 (stereo not drawn) | -3.8% |
| COCCN(Cc1ccsc1)C(=O)c1c(C)cc(C)[nH]c1=O | -1.09% |
| Cc1nc(C2CCCN(C(=O)c3ccoc3)C2)no1 (stereo not drawn) | -7% |
| O=c1[nH]nc2n1CCN(S(=O)(=O)c1ccccc1Cl)C2 | -7.03% |
| CC(C)COC(=O)N1CC(=O)N(Cc2ccco2)CC(O)C1 (stereo not drawn) | -3.84% |
| O=C(c1ccnnc1)N1CC2(CCN(c3ncccn3)C2)C1 | -5.07% |
| CC(C)N1CCCC2(CCN(C(=O)COCC(F)(F)C(F)F)C2)C1=O (stereo not drawn) | -3.34% |
| CC(C)n1cc(CN(Cc2ccsc2)CC2CCCO2)cn1 (stereo not drawn) | -1.43% |
| CC(C)COCc1cncc2c1CCN(C(=O)c1cscn1)C2 | -2.6% |
| c1ccc2ncc(CC3CNCCOC3)cc2c1 (stereo not drawn) | -0.7% |
| O=C(Cc1ccc2c(c1)CCC2)NCCNc1cnccn1 | -16% |
| CC(C)c1nc(N2CCN3CCCC3C2)c2cnn(C)c2n1 (stereo not drawn) | 1.45% |
| CN(C)c1nccc(N(C)C2CCCCC2)n1 | -4.22% |
| CCn1ncc(Cn2cc(Cl)c(N)n2)c1C | 19.5% |
| CNC(=O)Cn1c(-c2ccco2)nn(-c2ccccc2OC)c1=O | 9.58% |
| Cc1ccc(S(=O)(=O)NC(=O)C2(c3ccccc3)CCC2)c(C)c1 | -10.7% |
| O=C1CC(c2ccc(C(=O)O)cc2)c2ncn(-c3ccc(F)cc3)c2N1 (stereo not drawn) | -4.89% |
| CCN(Cc1ccccc1)C(=O)c1cc(C2CCCN2C)ccn1 (stereo not drawn) | 10.8% |
| CC(=O)NCCC1CCN(c2nc(C(C)(C)C)nc3c2cnn3C)CC1 | -1.1% |
| COc1ccc2nnc(CCC(=O)NCc3cccn3C)n2n1 | -2.62% |
| CCCNC(=O)c1cc(C(C)C)nc(N2CCCCC2)n1 | 3.03% |
| COc1cccc(C(O)C(=O)N(C)CCc2ccccn2)c1 (stereo not drawn) | -0.0669% |

| Structure (SMILES) | cytotoxicity at 70.5 h |
| --- | --- |
| Cc1nn(C)c2c(N3CCN(C(=O)C4CCCCC4)CC3)ncnc12 | 14.6% |
| O=C(c1ccccc1F)N(CCCO)S(=O)(=O)c1cccs1 | -9.23% |
| Cc1nc(NS(=O)(=O)c2ccc(F)c(Br)c2)no1 | -2.96% |
| Cc1ccc(N2CCCC(N(C)Cc3cc(C)no3)C2)nn1 (stereo not drawn) | -2.5% |
| Cc1ncc(C(=O)NCCNC(=O)c2ccccc2)s1 | -6.97% |
| COc1c(C2CCCN2C(=O)c2ccc3c(c2)OCO3)c(C)nn1C (stereo not drawn) | -2.19% |
| Cc1oc(C(=O)Nc2cccc(Cl)c2C)cc1S(N)(=O)=O | 0.43% |
| CCOCCN(C)C(c1cccnc1)c1ccc(F)cc1F (stereo not drawn) | -3.04% |
| CC(CO)N(C)C(=O)c1cn(-c2ccc(Br)cc2)cn1 (stereo not drawn) | -7.34% |
| N#CCc1ccc(OCC(=O)N2CCCC(n3cccn3)C2)cc1 (stereo not drawn) | -10.5% |
| CNc1nc(C)cc(NC2CCCN(C3Cc4ccccc4C3)C2)n1 (stereo not drawn) | 14.9% |
| O=S(=O)(c1ccccc1)N1C[C@@H]2COC[C@]2(CN2CCOCC2)C1 | 13.1% |
| CN(C)c1ncnc2c1CCN(S(=O)(=O)c1ccccc1C(F)(F)F)C2 | 1.88% |
| Cc1ccc(F)cc1C(=O)N1CCOCC12CCCC2 | -5.21% |
| COCCNC(=O)[C@H]1CN(Cc2sccc2C)C[C@H]2OCC[C@@H]12 | 7.63% |
| CN(Cc1cn2c(n1)CN(C(=O)CC1CC1)CC2)Cc1ccco1 | -4.98% |
| O=C(CCS(=O)(=O)c1ccccc1)N1CCCC(n2cccn2)C1 (stereo not drawn) | -2.57% |
| CCOCC1c2c(cnn2CC2CC2)CCN1C(=O)c1ccncn1 (stereo not drawn) | 20.9% |
| Cc1n[nH]c2c1C(c1ccc3c(c1)OCCO3)SCC(=O)N2 (stereo not drawn) | -0.607% |
| Cc1nc(CN2CCC(CNC(=O)Nc3ccccn3)CC2)oc1C | -8.33% |
| Cn1ccnc1CN1CCC2(CC1)COCCN(S(C)(=O)=O)C2 | -7.67% |
| COCCC1(CNC(=O)NCC2CCCS2)CCCC1 (stereo not drawn) | -3.7% |
| CCN(CC)C(=O)Cn1c(C)cc2nc(SC)n(CC(C)C)c(=O)c21 | -6.31% |

| Structure (SMILES) | cytotoxicity at 70.5 h |
| --- | --- |
| c1cnc(-c2nc(CNCCn3cccn3)cs2)nc1 | 8.63% |
| CN(C)C(=O)N1CC2(CCN(CC3CC3)CC2)c2cc(F)ccc21 | 19.9% |
| CN(Cc1ccco1)[C@@H]1CN(C(=O)C2CCOCC2)C[C@@H]2CCCO[C@@H]21 | 0.92% |
| COCCC(C)NC(=O)N1CCSC(C)(C)C1 (stereo not drawn) | -10.1% |
| CCOCC(O)CN1CCN(C(=O)Cc2ccc3c(c2)CCO3)CC1 (stereo not drawn) | 0.715% |
| O=C1CN(C(=O)CCn2c(C(F)(F)F)cc3cccnc32)CCN1 | 4.91% |
| CCOc1cc(C(=O)n2cc(C)cn2)cc(OCC)c1OCC | 1.34% |
| O=C(NC1CCC1)[C@@H]1CCO[C@@H]2CCN(C3CCCC3)C[C@@H]21 | 1.69% |
| COC(=O)c1cc(C(=O)N2CCCC(C)C2)n(-c2ccccc2)n1 (stereo not drawn) | -10.2% |
| C[C@H]1C[C@@H]2CCN(C(=O)c3cnccn3)C[C@H]2O1 | -8.48% |
| COc1ccc(CN2CCC[C@@H]3CN(C(=O)c4ccco4)C[C@@H]32)cc1 | -10.9% |
| COCCN1C(=O)CC[C@@H]2[C@H]1CCN2Cc1ccc(C)s1 | -11.5% |
| Cc1cc(NS(=O)(=O)c2ccc(C(=O)O)cc2F)ccc1F | -10.7% |
| COCCNc1c(-c2ccc(C)cc2)c(=O)c1=O | -9.49% |
| CCOC(=O)CCC(=O)N1CC(c2nc(Cc3ccccc3)no2)C1 | -6.9% |
| CCC(C)[C@H](N)c1nnc(SCC(=O)Nc2cc(C)ccc2C)o1 (stereo partly drawn) | -1.84% |
| CCNC(=O)C1CCCN(C(=O)Nc2cc(C#N)ccc2OCC)C1 (stereo not drawn) | 0.887% |
| CN1C(=O)CC[C@@H]2[C@H]1CCN2S(=O)(=O)Cc1ccccc1 | 47.7% |
| CN(C)C(=O)N1CCn2cc(CNC(=O)CC3CC3)nc2C1 | -0.867% |
| Cc1nnc2n1CCN(C(=O)c1ccc(Cn3cccc3)cc1)C2 | -7.82% |
| COCc1noc(-c2nn(-c3ccc(F)cc3)c3c2CCC3)n1 | -8.74% |
